The results in this text go back to patent US12479830B2, “Homopiperazinyl and homopiperidinyl quinazolin-4(3H)-one derivatives having multimodal activity against pain” (ESTEVE PHARMACEUTICALS, S.A., priority 2019, dated 2025).

As a reminder, the Ki is a dissociation constant, usually derived from enzyme kinetics or from competition with a known ligand.

For test [1], the target named is Human α2δ-1 subunit of Cav2.2 calcium channel (Homo sapiens, UniProt P54289). Kind of test: Human α2δ-1 subunit of Cav2.2 calcium channel assay ([3H]-gabapentin binding). The conditions noted are these: binding to the α2δ-1 subunit of voltage-gated calcium channels, expressed as Ki class; + also covers inhibition between 1% and 50%. The essentials: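 Affinity (Ki, five concentrations) or % inhibition at 1 or 10 μM, from displacement of 15 nM [3H]-gabapentin on human α2δ-1 membranes. Incubation 60 min, 27° C., Hepes-KOH 10 mM pH 7.4; 10 μM pregabalin defined non-specific binding; bound radioactivity counted after GF/C filtration.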

A further test concerns the target T1, Human σ1 receptor (Homo sapiens, UniProt Q99720).
T1 construct: expressed in transfected cells; host or cells: HEK-293
Kind of test: Human σ1 receptor radioligand assay ([3H](+)-pentazocine binding). The conditions noted are these: binding to the σ1 receptor, expressed as Ki class; + also covers inhibition between 1% and 50%. The essentials: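 Ki was derived from five test concentrations, or % inhibition was measured at a single 1 or 10 μM dose, against 5 nM [3H](+)-pentazocine. Incubation was 120 min at 37° C in 50 mM Tris-HCl pH 8 with 7 μg HEK-293 membranes, and 10 μM haloperidol set non-specific binding. Bound radioactivity was counted after filtration.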

T1 sequence (Q99720 whole entry): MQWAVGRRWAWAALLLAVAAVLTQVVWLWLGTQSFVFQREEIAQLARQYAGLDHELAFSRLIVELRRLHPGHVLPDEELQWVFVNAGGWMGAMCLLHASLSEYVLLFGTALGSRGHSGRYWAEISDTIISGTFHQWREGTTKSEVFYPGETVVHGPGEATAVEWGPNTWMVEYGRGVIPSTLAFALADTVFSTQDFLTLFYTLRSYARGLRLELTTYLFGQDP
Human α2δ-1 subunit of Cav2.2 calcium channel, sequence (P54289 25-1103): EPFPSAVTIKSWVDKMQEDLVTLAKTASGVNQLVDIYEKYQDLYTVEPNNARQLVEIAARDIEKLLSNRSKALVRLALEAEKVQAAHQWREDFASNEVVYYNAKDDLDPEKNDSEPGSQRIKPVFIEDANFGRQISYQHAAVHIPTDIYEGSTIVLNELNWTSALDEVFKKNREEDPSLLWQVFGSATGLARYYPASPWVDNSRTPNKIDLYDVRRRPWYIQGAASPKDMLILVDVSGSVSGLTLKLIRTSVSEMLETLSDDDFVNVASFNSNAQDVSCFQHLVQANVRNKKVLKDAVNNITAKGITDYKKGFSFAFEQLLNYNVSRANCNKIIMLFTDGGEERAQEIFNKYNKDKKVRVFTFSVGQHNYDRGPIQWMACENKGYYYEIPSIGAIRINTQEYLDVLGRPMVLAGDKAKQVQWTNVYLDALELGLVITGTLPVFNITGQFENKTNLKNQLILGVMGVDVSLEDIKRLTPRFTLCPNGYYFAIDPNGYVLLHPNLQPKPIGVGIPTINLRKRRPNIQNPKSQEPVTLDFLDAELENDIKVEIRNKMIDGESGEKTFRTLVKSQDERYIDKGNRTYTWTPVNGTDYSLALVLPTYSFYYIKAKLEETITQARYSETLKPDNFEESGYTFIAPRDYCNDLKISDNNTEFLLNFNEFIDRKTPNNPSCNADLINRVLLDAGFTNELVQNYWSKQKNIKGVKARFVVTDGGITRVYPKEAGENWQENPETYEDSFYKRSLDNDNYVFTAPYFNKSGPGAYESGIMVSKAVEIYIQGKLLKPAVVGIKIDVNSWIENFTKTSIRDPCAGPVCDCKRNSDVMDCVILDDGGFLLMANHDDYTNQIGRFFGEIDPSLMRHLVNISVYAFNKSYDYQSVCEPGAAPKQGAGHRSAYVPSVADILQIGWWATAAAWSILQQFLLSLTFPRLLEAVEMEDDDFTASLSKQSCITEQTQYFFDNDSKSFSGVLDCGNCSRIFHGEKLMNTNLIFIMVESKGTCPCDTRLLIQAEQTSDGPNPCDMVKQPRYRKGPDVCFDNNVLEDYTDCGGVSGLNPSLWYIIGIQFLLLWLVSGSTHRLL

For `CCC[C@@H](c1nc2cc(F)c(Cl)cc2c(=O)n1CC)N1CCN(C)C[C@@H](C)C1` [Example 138, 6-chloro-2-((S)-1-((R)-4,6-dimethyl-1,4-diazepan-1-yl)butyl)-3-ethyl-7-fluoroquinazolin-4 (3H)-one], the Ki is over 5 µM in test [1] and 0.5 to 1 µM at Human σ1 receptor.

On to `CCC[C@H](c1nc2ccc(Br)cc2c(=O)n1CC)N1CCN[C@H](C)CC1` [Example 92, 6-bromo-3-ethyl-2-((R)-1-((R)-5-methyl-1,4-diazepan-1-yl)butyl)quinazolin-4(3H)-one], for which the inhibition constant (Ki) is 0.5 to 5 µM in test [1] and over 1 µM on Human σ1 receptor.

In the case of `CCC[C@H](c1nc2ccc(Cl)cc2c(=O)n1C)N1CCN[C@@H](C)CC1` [Example 246, 6-chloro-3-methyl-2-((R)-1-((S)-5-methyl-1,4-diazepan-1-yl)butyl)quinazolin-4(3H)-one], the Ki in test [1] is 0.5 to 5 µM; on Human σ1 receptor, under 0.5 µM.

Consider `CCC[C@H](c1nc2c(F)cc(F)cc2c(=O)n1CC)N1CCCN(C)CC1` [Example 247, (R)-3-ethyl-6,8-difluoro-2-(1-(4-methyl-1,4-diazepan-1-yl)butyl)quinazolin-4(3H)-one], for which the inhibition constant (Ki) is under 0.5 µM in test [1] and 0.5 to 1 µM on Human σ1 receptor.

Consider `CCCC(c1nc2ccc(Br)cc2c(=O)n1CC(C)C)N1CCCN(CC)CC1` (stereo not drawn) [Example 58, 6-bromo-2-(1-(4-ethyl-1,4-diazepan-1-yl)butyl)-3-isobutylquinazolin-4(3H)-one], for which the inhibition constant (Ki) (in test [1]; on Human σ1 receptor) was under 0.5 µM throughout.

Turning to `CCC[C@H](c1nc2ccc(F)cc2c(=O)n1CC)N1CCCN[C@H](C)C1` [Example 143, 3-Ethyl-6-fluoro-2-((R)-1-((R)-3-methyl-1,4-diazepan-1-yl)butyl)quinazolin-4(3H)-one], the Ki (in test [1]; at Human σ1 receptor) was under 0.5 µM in each case.

Consider `CCC[C@H](c1nc2ccc(Br)cc2c(=O)n1CC)N1CCNC[C@H](O)C1` [Example 116, 6-bromo-3-ethyl-2-((R)-1-((S)-6-hydroxy-1,4-diazepan-1-yl)butyl)quinazolin-4(3H)-one], for which the Ki in test [1] is under 0.5 µM; on Human σ1 receptor it was over 1 µM.

As for `CCCC(c1nc2ccncc2c(=O)n1CC)N1CCCN(C)CC1` (stereo not drawn) [Example 163, 3-Ethyl-2-(1-(4-methyl-1,4-diazepan-1-yl)butyl)pyrido[4,3-d]pyrimidin-4(3H)-one], the inhibition constant Ki in test [1] was under 0.5 µM; at Human σ1 receptor, over 1 µM.

Turning to `CCCC(c1nc2cccnc2c(=O)n1CC)N1CCCN(C)CC1` (stereo not drawn) [Example 86, 3-ethyl-2-(1-(4-methyl-1,4-diazepan-1-yl)butyl)pyrido[3,2-d]pyrimidin-4(3H)-one], the figures for the inhibition constant Ki (in test [1]; at Human σ1 receptor) were over 5 µM and over 1 µM, respectively.

Consider `CCC[C@H](c1nc2ccc(F)cc2c(=O)n1CC1CC1)N1CCCN(CC)CC1` [Example 218, (R)-3-(cyclopropylmethyl)-2-(1-(4-ethyl-1,4-diazepan-1-yl)butyl)-6-fluoroquinazolin-4(3H)-one], for which the Ki (in test [1]; on Human σ1 receptor) was under 0.5 µM each time.

`CCC[C@H](c1nc2ccc(F)c(F)c2c(=O)n1CC)N1CCCN(C)CC1` [Example 233, (R)-3-ethyl-5,6-difluoro-2-(1-(4-methyl-1,4-diazepan-1-yl)butyl)quinazolin-4(3H)-one]: the Ki (in test [1]; on Human σ1 receptor) was under 0.5 µM throughout.

Consider `CCCC(c1nc2ccc(Cl)cc2c(=O)n1CCC)N1CCCN(CC)CC1` (stereo not drawn) [Example 79, 6-chloro-2-(1-(4-ethyl-1,4-diazepan-1-yl)butyl)-3-propylquinazolin-4(3H)-one], for which the inhibition constant (Ki) (in test [1]; at Human σ1 receptor) was under 0.5 µM throughout.

Take `CCCC(c1nc2cc(Br)ccc2c(=O)n1CC)N1CCCN(C)CC1` (stereo not drawn) [Example 3, 7-bromo-3-ethyl-2-(1-(4-methyl-1,4-diazepan-1-yl)butyl)quinazolin-4(3H)-one]: the inhibitory constant (Ki) in test [1] is under 0.5 µM; on Human σ1 receptor, over 1 µM.

Turning to `CCC[C@@H](c1nc2c(F)cc(Br)cc2c(=O)n1CC)N1CCCN(C)CC1` [Example 162, (S)-6-bromo-3-ethyl-8-fluoro-2-(1-(4-methyl-1,4-diazepan-1-yl)butyl)quinazolin-4(3H)-one], the Ki in test [1] is over 5 µM; at Human σ1 receptor it was 0.5 to 1 µM.

With `CCCC(c1nc2cc(Br)c(F)cc2c(=O)n1CCC)N1CCCN(C)CC1` (stereo not drawn) [Example 31, 7-bromo-6-fluoro-2-(1-(4-methyl-1,4-diazepan-1-yl)butyl)-3-propylquinazolin-4(3H)-one], the inhibition constant (Ki) in test [1] was under 0.5 µM; at Human σ1 receptor, 0.5 to 1 µM.

As to `CCCC(c1nc2c(F)cc(OC)cc2c(=O)n1CC)N1CCCN(C)CC1` (stereo not drawn) [Example 117, 3-ethyl-8-fluoro-6-methoxy-2-(1-(4-methyl-1,4-diazepan-1-yl)butyl)quinazolin-4(3H)-one], the inhibitory constant (Ki) lay within 0.5 to 5 µM in test [1] and 0.5 to 1 µM on Human σ1 receptor.

`CCC[C@@H](c1nc2ccncc2c(=O)n1CC)N1CCNC[C@H](C)C1` [Example 166, 3-ethyl-2-((S)-1-((S)-6-methyl-1,4-diazepan-1-yl)butyl)pyrido[4,3-d]pyrimidin-4(3H)-one]: the Ki is over 5 µM in test [1] and over 1 µM on Human σ1 receptor.

Regarding `CCCC(c1nc2ccc(F)c(F)c2c(=O)n1CC)N1CCCN(C)CC1` (stereo not drawn) [Example 72, 3-ethyl-5,6-difluoro-2-(1-(4-methyl-1,4-diazepan-1-yl)butyl)quinazolin-4(3H)-one], the Ki (in test [1]; on Human σ1 receptor) was under 0.5 µM each time.

Take `CCCCn1c([C@@H](CCC)N2CCCN(C)CC2)nc2ccc(F)cc2c1=O` [Example 224, (R)-3-butyl-6-fluoro-2-(1-(4-methyl-1,4-diazepan-1-yl)butyl)quinazolin-4(3H)-one]: the Ki (in test [1]; at Human σ1 receptor) was under 0.5 µM throughout.

Regarding `CCCC(c1nc2c(C)cc(Br)cc2c(=O)n1CC)N1CCCN(C)CC1` (stereo not drawn) [Example 25, 6-bromo-3-ethyl-8-methyl-2-(1-(4-methyl-1,4-diazepan-1-yl)butyl)quinazolin-4(3H)-one], the inhibition constant Ki is over 5 µM in test [1] and 0.5 to 1 µM at Human σ1 receptor.

For the molecule `CCC[C@@H](c1nc2ccc(Br)cc2c(=O)n1CC)N1CCN(C)C[C@@H](COC)C1` [Example 108, 6-bromo-3-ethyl-2-((S)-1-((R)-6-(methoxymethyl)-4-methyl-1,4-diazepan-1-yl)butyl)quinazolin-4(3/1)-one], the Ki in test [1] is over 5 µM; on Human σ1 receptor, 0.5 to 1 µM.

Take `CCC[C@@H](c1nc2ccc(Br)cc2c(=O)n1CC)N1CCN(C)C[C@H](COC)C1` [Example 107, 6-bromo-3-ethyl-2-((S)-1-((S)-6-(methoxymethyl)-4-methyl-1,4-diazepan-1-yl)butyl)quinazolin-4(31-)-one]: the Ki in test [1] was in the range of 0.5 to 5 µM; at Human σ1 receptor, 0.5 to 1 µM.

Take `CCC[C@H](c1nc2ccc(Br)cc2c(=O)n1CC)N1CCN(C)C[C@H](CO)C1` [Example 123, 6-Bromo-3-ethyl-2-((R)-1-((S)-6-(hydroxymethyl)-4-methyl-1,4-diazepan-1-yl)butyl)quinazolin-4(3H)-one]: the Ki was under 0.5 µM in test [1] and 0.5 to 1 µM at Human σ1 receptor.

On to `CCC[C@H](c1nc2cc(F)c(F)cc2c(=O)n1CC)N1CCN[C@H](C)CC1` [Example 241, 3-ethyl-6,7-difluoro-2-((R)-1-((R)-5-methyl-1,4-diazepan-1-yl)butyl)quinazolin-4(3H)-one], for which the inhibitory constant (Ki) is under 0.5 µM in test [1] and 0.5 to 1 µM on Human σ1 receptor.
